The values that follow come from paper PMC11124341, “4-Hydroxybenzoic Acid-Based Hydrazide–Hydrazones as Potent Growth Inhibition Agents of Laccase-Producing Phytopathogenic Fungi That Are Useful in the Protection of Oilseed Crops” (Molecules, 2024).

The subject of one data set is Balb/3T3 cells. Nature of the data set: Antiproliferative assay in vitro (SRB). Format: cell-based, mouse. The conditions noted are these: Mus musculus, BALB/3T3; 72 h exposure, SRB method; read-out: Average IC50 ± SD, Balb/3T3 line. As for the experimental part:
(§1) Antiproliferative tests were performed on a normal human breast cell line, MCF-10A, and a mouse embryonic fibroblast: Balb/3T3. Both cell lines were obtained from the American Type Culture Collection (Rockville, MD, USA). The cell lines were maintained in the Institute of Immunology and Experimental Therapy, Wroclaw, Poland. MCF-10A cells were cultured in the F-12 nutrient mixture (Gibco, Scotland, UK), supplemented with 5% horse serum (Gibco, Scotland, UK), […] (Vibrio cholerae Pacini), 10 μg/mL of hydrocortisone and 20 ng/mL of human epidermal growth factor (all from Sigma-Aldrich, Chemie GmbH, Steinheim, Germany). Balb/3T3 cells were cultured in Dulbecco medium (Gibco, Darmstadt, Germany) supplemented with 10% fetal bovine serum (Thermo Fisher Scientific, Waltham, MA, USA) and 2 mM l-glutamine (Sigma-Aldrich, St. Louis, MO, USA). All culture media contained antibiotics: 100 U/mL penicillin (Sigma-Aldrich, St. Louis, MO, USA) and 100 µg/mL streptomycin (Polfa-Tarchomin, Warsaw, Poland). Both cell lines were cultured during the entire experiment in a humid atmosphere at 37 °C and 5% CO2. Amistar 250 SC (fungicide) with active compound azoxystrobin was provided by the Institute of Soil Science and Plant Cultivation, National Research Institute in Pulawy, Department of Weed Science and Tillage Systems in Wroclaw, Poland […].
(§2) Twenty-four hours prior to the applications of the tested compounds, MCF-10A and Balb/3T3 cells were plated in 96-well plates at a density of 10^4 cells per well and cultured at 37 °C in a humid atmosphere saturated with 5% CO2 for 24 h. Stock solutions of the compounds were prepared ex tempore for each test by dissolving in DMSO. The cells were also exposed to the reference drugs: cis-platin (Accord, London, UK) (10–0.01 µg/mL) and DMSO (Sigma-Aldrich) (at the concentrations corresponding to those in the tested agent dilutions). The solutions were then diluted in culture medium RPMI 1640 + Opti-MEM (1:1) (both from Gibco, Scotland, UK), supplemented with 2 mM l-glutamine, 5% fetal bovine serum (all from Sigma-Aldrich Chemie GmbH, Steinheim, Germany). An assay was performed after 72 h of exposure to the tested compounds 13, 17, 18, 19, 25, 27, 30, 4-hba, 4-hbah, and 3,4,5-hba (0.5, 5.0, 50, and to 500 µM) and azoxystrobin fungicide (0.05, 0.5, 5.0 and 50 µM). The antiproliferative effect in vitro was determined by the SRB method (sulforhodamine B colorimetric assay). The optical densities of the samples were measured on the Synergy H4 photometer (BioTek Instruments, Winooski, VT, USA) at 540 nm. The results were calculated as 50% inhibitory concentration (IC50), namely the dose of the tested compound inhibiting proliferation of the tested cells by 50% as compared to the untreated control cells, in the Prolab-3 system based on Cheburator 0.4 software using the two-point method. Each test was repeated 3–5 times.
(§3) Cytotoxicity was performed on two normal cell lines: MCF -10A and Balb/3T3, using as controls cis-platin in the concentrations of 0.03 32, 0.3 32, 3.32 and 33.2 µM and azoxystrobin fungicide in the […]
(§4) were tested in the concentrations of 0.5, 5.0, 50, and 500 µM. The relation of compound concentration […]
(§5) Further, a comparison of the influence of each tested concentration in the group of tested compounds on cell lines was illustrated in Figure S130 a (MCF-10A) and b (Balb/T3T).
(§6) Table S4. Cytotoxicity results for compounds 13, 17, 18, 19, 25, 27, and 30 investigated on normal mammalian lines: MCF -10A and B alb/3T3 using Azoxystrobin (fungicide) and cis-platin as reference compounds.
(§7) Cytotoxicity profile presented as proliferation inhibition, % (y -axis) in the function of compound concentration, […]
(§8) Structure MCF-10A Balb/3T3
(§9) Proliferation inhibition [%] […]

The subject of the next data set is MCF-10A cells. Kind of data set: Antiproliferative assay in vitro (SRB). Format: cell-based, human. The conditions noted are these: Homo sapiens, MCF-10A; 72 h exposure, SRB method; read-out: Average IC50 ± SD, MCF-10A line. As for the experimental part:
as §1, §2, §3, §4, §5, §6, §7, §8, §9

In data set [1] the test system is rapeseed (Brassica napus L. var. napus) seeds. Nature of the data set: Phytotest 1: phytotoxicity, seed germination and root growth. It is filed as in vivo. To be noted: 50 µg/mL; versus water–ethanol 0.5% (v/v) control; <90% inhibition, 90–110% no effect, >110% stimulation. The text has this:
(§10) In the experiments with plants, two aspects were taken under consideration: (1) phytotoxicity, which determined the toxicity of the hydrazide–hydrazones on seed germination and root growth, and (2) study on the behavior of seeds in the presence of the tested hydrazide–hydrazones and pathogens producing laccase (B. cinerea and S. sclerotiorum). The non-coated seeds of Linum usitatissimum, Helianthus annuus, and Brassica napus var. napus were provided by the Institute of Soil Science and Plant Cultivation, National Research Institute in Pulawy, Department of Weed Science and Tillage Systems, and Institute of Technology and Life Sciences–National Research Institute Falenty (Poland). Both phytotests were performed based on direct-contact microbiotests following the protocol recommended by the manufacturer (PhytotestkitTM, MicroBio Tests, Mariakerke, Belgium) with the authors’ modifications.
(§11) The main phytotest equipment (Tigret, Warsaw, Poland) and general methods are described as follows. Test plates (21 × 15.5 × 0.8 cm) provide optimal moisture and enable observation of seed germination and data reading at the end of the test. A single plate is made of polyvinylchloride and composed of both a transparent bottom and a covering part that are stuck together by a set of press buttons. […] Such prepared wet support was covered with a black filter paper that soaked the solution and was applied for further testing.
(§12) In the assay of phytotoxicity (1), the seeds of three dicota plants were used, namely ten seeds of flax or rapeseed and six seeds of sunflower. The seeds were transferred directly on the filter surface by placing them along the line at approximately 1 cm from the ridge at equal distances. Then, the seeds on the filter surface were covered with a covering part and placed in a holder.
(§13) All test plates were put vertically in a special incubator to allow free germination and growth of roots at 25 °C through 5 days in the dark. The test was performed in triplicate for each test plant. The results were expressed as the germination index values (GI, Equation (2)) concerning the plant growth controls in water–ethanol solution for (1). […] The GI was calculated from the formula and categorized as an inhibition for GI values < 90%, as stimulation > 110%, and between 90 and 110% as non-toxic/no effect as proposed in the literature. (2) GI,%=Gs×Ls/Gc×Lc×100% where Gs is seed germination (%), Ls is root elongation (mm) for the test plate, and Gc and Lc are corresponding values for the control plates. Gc was calculated as the proportion of germinated seeds in the test in relation to the number of germinated seeds in the control. The control was the representative number of seeds that germinated on a medium with 0.5% (v/v) of ethanol.

The test system of data set [2] is flax (Linum usitatissimum L.) seeds. The description is as above. The conditions noted are these: 50 µg/mL; versus water–ethanol 0.5% (v/v) control; <90% inhibition, 90–110% no effect, >110% stimulation. Format: in vivo.
Excerpt: as §10, §11, §12, §13

The structures appear in SMILES notation.

For the compound `O=C(N/N=C/c1cc(O)ccc1O)c1ccc(O)cc1` [compound 13], the melting point was 304 °C (dec.). Moreover, the IC50 with Balb/3T3 cells is 132 ± 9.22 µM. The IC50 in the data set with MCF-10A cells is 213 ± 34.1 µM.

On to `COc1cc(/C=N/NC(=O)c2ccc(O)cc2)ccc1O` [compound 17], for which the figures for the IC50 in the data set with Balb/3T3 cells and in the data set on MCF-10A cells were 217 ± 61.2 µM and 275 ± 41.5 µM, respectively. Besides, the “Germination index (GI), rapeseed, test 1” value in data set [1] worked out at 81%.

With `CC(C)(C)c1cccc(/C=N/NC(=O)c2ccc(O)cc2)c1O` [compound 18], the IC50 in the data set with Balb/3T3 cells came to 11.4 ± 2.54 µM; with MCF-10A cells, 6.41 ± 2.05 µM. Further, in data set [1], the “Germination index (GI), rapeseed, test 1” value is given as 67%. Moreover, in data set [2], the “Germination index (GI), flax, test 1” value is on record as “stimulating”.

Turning to `O=C(N/N=C/c1cccc(-c2ccccc2)c1O)c1ccc(O)cc1` [compound 19], the IC50 was 3.97 ± 0.15 µM in the data set on Balb/3T3 cells and 3.44 ± 0.83 µM in the data set on MCF-10A cells. Besides, the “Germination index (GI), rapeseed, test 1” value in data set [1] is reported as “stimulating”.

Consider `Cc1cc(/C=N/NC(=O)c2ccc(O)cc2)c(O)c(CO)c1` [compound 25], for which the IC50 is 27.2 ± 4.3 µM with Balb/3T3 cells and 27.5 ± 1.83 µM in the data set with MCF-10A cells. In data set [1], the “Germination index (GI), rapeseed, test 1” value is on record as “stimulated”. Further, the “Germination index (GI), flax, test 1” value in data set [2] is given as “stimulated”.

In the case of `CC(C)(C)c1cc(/C=N/NC(=O)c2ccc(O)cc2)c(O)c(C(C)(C)C)c1` [compound 27], the IC50 with Balb/3T3 cells came out at 11.7 ± 0.69 µM; in the data set on MCF-10A cells it was 7.73 ± 1.08 µM. Besides, in data set [1], the “Germination index (GI), rapeseed, test 1” value is listed as 83%.

For the compound `Cc1cc(/C=N/NC(=O)c2ccc(O)cc2)c(O)c(C(C)(C)C)c1` [compound 30], the IC50 turned out to be 23.1 ± 3.87 µM in the data set on Balb/3T3 cells and 8.85 ± 5.47 µM in the data set on MCF-10A cells.
